Assay results as given in PMC5053593, “Tetrahydrobiopterin Supplementation: Elevation of Tissue Biopterin Levels Accompanied by a Relative Increase in Dihydrobiopterin in the Blood and the Role of Probenecid-Sensitive Uptake in Scavenging Dihydrobiopterin in the Liver and Kidney of Rats” (PLoS ONE, 2016).
Counter-ions that a name gives are not always drawn. Like-named read-outs stand apart in the source and are kept apart here.

Key:
[1] = rat, in vivo
Source text: (§1) In the following sample acquisition, special care to ensure minimal oxidation of BH4 was taken throughout the following procedure. In brief, the abdomen was opened and cannulae were set in place for collecting bile and urine. The blood samples were drawn from the tail vein into a heparin-coated capillary containing a solution of 0.1 M ascorbic acid (less than 5% by volume), and they were then subjected to differential iodine oxidation for BP determination. The urine was collected at intervals from the bladder through an indwelling needle connected to an airtight syringe in which the dead space had been filled with saline containing 50 mM each of ascorbic acid and EDTA (pH 6.8). The urine was immediately mixed with 9 volumes of 10 mM HCl containing 5 mM antioxidant. The aliquots were then subjected to quantitation of BP and creatinine. BP excretion was expressed as BP/creatinine (μmol/mg creatinine) based on the BP concentration (nmol/mL) divided by the time-matched creatinine level (μg/mL). In calculating the cumulative total, the amounts of BP in each fraction were added. Calculations were based on the BP concentration (nmol/mL) multiplied by the respective urine volume (mL) produced between each sampling time point regardless of the creatinine concentration. The bile was also collected from individual rats through a cannula in the bile duct and was immediately subjected to BP determination. The cumulative BP amount was calculated by adding up all samples measured.
(§2) Biopterin was determined essentially according to Fukushima and Nixon and modified as described previously. Animal tissues contain at least 4 chemical species of the reduced biopterin family; BH4-4a-carbinolamine (or 4a-hydroxy-tetrahydrobiopterin), quinonoid dihydrobiopterin and 7,8-dihydrobiopterin as well as BH4. The Fukushima and Nixon method includes tissue homogenization and extraction of pterin compounds followed by measurement of amount of fully oxidized biopterin after differential iodine oxidation under acid and alkaline conditions. With their method, the biopterin quantity remaining after the acid-oxidation was taken as the total biopterin (BP = “BH4” + “BH2” + “oxidized biopterin”) and that which remained after the alkaline-oxidation, as 7,8-dihydrobiopterin (BH2) plus oxidized biopterin. […] Accordingly, in this study, the biopterin amount measured after the acid iodine oxidation was taken as the sum of “BH4” and “BH2” (“BP” = “BH2” + “BH4”), and that after the alkaline oxidation, as the amount of “BH2”. The difference was therefore taken as the “BH4” amount. The BH4 fraction (BH4%; the percentage of BH4 in BP) was calculated for each individual sample. The amounts of BH4 and BH2 were calculated based on molecular weights of 241 g/mol and 239 g/mol, respectively.
The urinary creatinine concentration was measured using a creatininase-HMMPS method according to the manufacturer’s instructions (L-type Creatinine M; Wako Pure Chemical Industries, Osaka, Japan).
Data were expressed as means ±S.E. The statistical significance of two groups with non-repeated determination was analyzed by Student’s t-test. The significance of difference between determinations at different times with individual animal groups was analyzed by the Paired t-test. Significance of difference between three groups was analyzed by Tukey’s test. All the statistical analyses were performed with Pharmaco Basic Ver.15.0.1 (Scientist Co. Ltd., Tokyo). Using results of pterin kinetics, exponential least square approximation was performed with Excel software using Microsoft Office for Mac.

[2] = both, Sprague-Dawley, rat, in vivo
Source text: as §1
Biopterin was determined essentially according to Fukushima and Nixon and modified as described previously. […] With their method, the biopterin quantity remaining after the acid-oxidation was taken as the total biopterin (BP = “BH4” + “BH2” + “oxidized biopterin”) and that which remained after the alkaline-oxidation, as 7,8-dihydrobiopterin (BH2) plus oxidized biopterin. […] Accordingly, in this study, the biopterin amount measured after the acid iodine oxidation was taken as the sum of “BH4” and “BH2” (“BP” = “BH2” + “BH4”), and that after the alkaline oxidation, as the amount of “BH2”. […] The BH4 fraction (BH4%; the percentage of BH4 in BP) was calculated for each individual sample. The amounts of BH4 and BH2 were calculated based on molecular weights of 241 g/mol and 239 g/mol, respectively.
Data were expressed as means ±S.E. The statistical significance of two groups with non-repeated determination was analyzed by Student’s t-test. The significance of difference between determinations at different times with individual animal groups was analyzed by the Paired t-test. Significance of difference between three groups was analyzed by Tukey’s test. […]

[3] = set-up: method as in PMID 22318121, PMID 22318121; details: cited from earlier work
[4] = both, Sprague-Dawley, rat, in vivo; remark: listed apart in the source
Experimental: Each blood sample was divided into three portions; one served as a “whole blood” specimen, the second was for the hematocrit determination, and the third was centrifuged (10,000 rpm, 4°C, 5 min) to separate red blood cells (RBCs) from the plasma. The whole blood, plasma, and RBCs were separately subjected to differential iodine oxidation for the BP determination described below. The results were expressed as the amount of BP per unit volume of the original blood sample (plasma + RBC, mL) based on the hematocrit value. The kidneys, liver, and whole brain were removed without prior perfusion, rinsed with saline, blotted, weighed, frozen in liquid nitrogen, and then stored at -80°C until BP determination. BP carryover with the blood was ignored in the liver and kidney. However, for the brain, the BP carryover was estimated using an average blood inclusion of 1.2% (v/w), which was determined by a comparison of the heme content of the blood and brain homogenates based on light absorbance at 415 nm.
as §2

SMILES: C[C@H](O)[C@H](O)[C@H]1CNc2nc(N)[nH]c(=O)c2N1 [6RBH4, (6R)-L-erythro-5,6,7,8-tetrahydrobiopterin dihydrochloride]
- Urinary BP outflow ([1]; both, Sprague-Dawley): 1840 ± 250 nmol
- Urinary BP outflow as % of gross outflow obtained by 270 min ([1]; both, Sprague-Dawley): about 58%
- Urinary BH4% ([1]; both, Sprague-Dawley, 30 min): 95 ± 1%
- Urinary BH4% ([1]; both, Sprague-Dawley, 90 min): 87 ± 2%
- Urinary BH4% ([1]; both, Sprague-Dawley, 240 min): ca. 94%
- Creatinine-based urinary BP AUC0–270 ([1]; iv, 5 mg/kg): 731 (μmol/mg Cr)•min
- Biliary BH4% [2]: ~95%
- Biliary BP outflow fit, rate constant k [2]: 0.007 min⁻¹
- C0 [2]: 47.2 µM
- Cumulative excretion of BP in the bile as % of that in the urine [2]: about 3%
- Urinary BP flow, glomerular filtration rate constant k [3]: 0.013 min⁻¹
- Urinary BP flow, observed gross rate constant k [3]: 0.043 min⁻¹
- Urinary BP flow, tubular secretion rate constant k ([3]; gross minus glomerular rate constant): 0.030 min⁻¹
- BH4% in blood ([4]; 30 min): 93.9 ±0.6%
- BH4% in kidney ([4]; 30 min): 98.0 ±0.2%
- BP (nmol) per organ ([4]; 30 min): 76.8 nmol
- BP (nmol), sub-total of liver, blood, kidneys, brain ([4]; 30 min): 515 nmol
- Brain BP increase over untreated rats ([4]; 30 min): about 43%
- Kidney BP over the initial value ([4]; 30 min): 58 fold
- Liver BP content ([4]; 30 min): 53.3 nmol/g
- Liver BP over the initial value ([4]; 30 min): 9.1 fold
- BH4% in blood ([4]; 120 min): 96.2 ±0.1%
- BH4% in liver ([4]; 120 min): 98.8 ±0.1%
- BP (nmol) per organ ([4]; 120 min): 39.5 nmol
- BP (nmol), sub-total of liver, blood, kidneys, brain ([4]; 120 min): 325 nmol
